Measured values from patent publication US9745384B2, “Peptides useful for modulating histone demethylase function” (The Brigham and Women's Hospital, Inc., priority 2012, dated 2017).
Ends that are not written are not given here.

Assays:
[1] = biological target: T1, LSD2 (residues 51-822) (Homo sapiens, UniProt Q8NB78); assay: ITC binding of wild-type and mutant NPAC peptides (residues 214-225) with LSD2; conditions: 15 °C; 3 mM NPAC peptide injected into 0.2 mM LSD2
T1 construct: Human LSD2 (residues 51-822) was subcloned into a pFastBacl derivative; His6 (cleaved yes); made in house; host or cells: Sf9 insect cells (baculovirus)
T1 sequence (Q8NB78 51-822): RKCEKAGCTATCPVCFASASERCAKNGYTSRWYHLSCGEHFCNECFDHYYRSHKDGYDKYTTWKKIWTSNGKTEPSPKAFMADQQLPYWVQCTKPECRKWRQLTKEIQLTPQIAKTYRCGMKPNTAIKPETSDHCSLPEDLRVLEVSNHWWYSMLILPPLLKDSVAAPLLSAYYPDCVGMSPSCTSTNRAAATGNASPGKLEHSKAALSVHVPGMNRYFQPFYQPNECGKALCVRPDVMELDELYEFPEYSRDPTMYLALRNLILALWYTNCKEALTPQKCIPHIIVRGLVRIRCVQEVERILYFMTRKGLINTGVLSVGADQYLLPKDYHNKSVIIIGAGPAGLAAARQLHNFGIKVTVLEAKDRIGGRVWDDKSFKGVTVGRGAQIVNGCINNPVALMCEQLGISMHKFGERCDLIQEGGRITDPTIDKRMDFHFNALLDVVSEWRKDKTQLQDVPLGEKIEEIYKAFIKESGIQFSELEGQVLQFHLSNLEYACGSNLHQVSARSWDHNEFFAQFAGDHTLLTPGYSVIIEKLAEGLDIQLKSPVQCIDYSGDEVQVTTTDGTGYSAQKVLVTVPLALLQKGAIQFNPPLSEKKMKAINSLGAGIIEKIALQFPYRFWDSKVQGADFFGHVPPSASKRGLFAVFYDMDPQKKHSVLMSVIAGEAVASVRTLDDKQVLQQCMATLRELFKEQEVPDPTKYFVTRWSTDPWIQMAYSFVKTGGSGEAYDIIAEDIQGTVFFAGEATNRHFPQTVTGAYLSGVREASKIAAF
Experimental: (§1) All proteins and peptides were prepared in 10 mM HEPES, pH 8.0, and 0.1 M NaCl. The data were fitted by software Origin 7.0.

[2] = biological target: T2, LSD2 (Homo sapiens, UniProt Q8NB78); assay: H3K4me2 peptide demethylation assay (MALDI-TOF); format: biochemical; conditions: H3K4me2 peptide residues 1-21
T2 construct: 0.15 μM or 1.2 μM purified LSD2 (residues 51-822); His6 (cleaved yes); made in house; host or cells: Sf9 insect cells (baculovirus)
T2 sequence (Q8NB78 51-822): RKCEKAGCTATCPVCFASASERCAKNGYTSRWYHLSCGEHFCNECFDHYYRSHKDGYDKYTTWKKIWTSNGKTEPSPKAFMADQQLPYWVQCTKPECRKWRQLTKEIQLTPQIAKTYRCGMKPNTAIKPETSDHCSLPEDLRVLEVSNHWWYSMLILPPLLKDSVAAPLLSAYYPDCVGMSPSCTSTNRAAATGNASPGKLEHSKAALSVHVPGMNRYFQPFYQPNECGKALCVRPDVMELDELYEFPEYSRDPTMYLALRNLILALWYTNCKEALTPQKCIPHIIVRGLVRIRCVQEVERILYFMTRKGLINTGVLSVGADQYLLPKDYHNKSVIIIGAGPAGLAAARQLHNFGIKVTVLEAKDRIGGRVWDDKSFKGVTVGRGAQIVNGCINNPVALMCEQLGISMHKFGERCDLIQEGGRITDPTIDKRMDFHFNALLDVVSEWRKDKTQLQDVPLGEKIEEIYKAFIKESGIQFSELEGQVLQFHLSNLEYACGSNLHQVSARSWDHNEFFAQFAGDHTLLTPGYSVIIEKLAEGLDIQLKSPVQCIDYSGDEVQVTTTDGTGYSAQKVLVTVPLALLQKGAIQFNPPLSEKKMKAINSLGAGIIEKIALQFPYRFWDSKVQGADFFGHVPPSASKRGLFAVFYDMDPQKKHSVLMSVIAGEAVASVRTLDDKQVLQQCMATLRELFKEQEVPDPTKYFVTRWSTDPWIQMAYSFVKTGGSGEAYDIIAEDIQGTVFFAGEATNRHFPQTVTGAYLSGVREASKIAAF
Experimental: FIGS. 12A-12F depict analysis of LSD2 demethylation activity and mutational analysis. […] Demethylation products were analyzed by MALDI-TOF mass spectrometry. 0.15 μM LSD2 can efficiently demethylate the longer H3K4me2 peptide (1-21), but has no detectable activity on the shorter histone peptide (1-15), demethylation of which requires high concentration (1.2 μM) of LSD2. […] It indicates the importance of histone residue 16-21 to LSD2 enzymatic activity and NPAC cofactor activity, supporting our model that NPAC assists enzyme-substrate interactions by creating a new binding site for H3 L20 in the LSD2-NPAC complex. FIG. 12C depicts LSD2 demethylation and NPAC cofactor activity on longer H3K4me2 peptide (1-44). 2 μg H3K4me2 peptide (1-44) were incubated with 0.8 μg GST-LSD2 (1-822) and 2 μg wild-type or F217A full-length GST-NPAC proteins in 100 μl demethylation buffer (50 mM Tris-HCl pH 8.1, 1 mM NAD^+, 0.1 Unit formaldehyde dehydrogenase) at 30° C. for 2 hours. LSD2 alone can efficiently demethylate di-methyl H3K4 of the long peptides, converting large majority of the substrate to H3K4me1. Wild-type NPAC protein can efficiently stimulate LSD2 demethylation, producing unmethylated H3K4. F217A mutation impairs NPAC cofactor activity as expected, showing little stimulatory effect if any. To compare demethylation efficiency, 1.2 μg bio-H3K4me2 peptide (H3 residue 1-21, equal molar ratio to 2 ug H3K4me2 1-44 peptide in above assays) was demethylated by LSD2 under identical conditions (bottom panel). […] The cofactor activity of wild-type NPAC was readily detected under the same conditions. […] Importantly, the demethylation of nucleosomal H3K4me2 was much more efficient in the presence of wild-type NPAC under same conditions (comparing lane 3 verse 4, and 8 verse 9). It is noted that no obvious cofactor effect of F217A peptide or linker regions was detected in nucleosome and peptide demethylation assays (FIG. 6E and data not shown). FIG. 12F depicts Coomassie staining of NPAC proteins used in histone demethylase assays. FIG. 12F discloses “His6” as SEQ ID NO: 75.
Histone peptides are purchased from Millipore, or custom synthesized. The purity of all peptides are >95% as determined by HPLC and mass spectrometry. In vitro histone demethylase activity assays were performed as described (Shi et al., 2004). Briefly, purified LSD2 and NPAC derived peptides or proteins were incubated with 50 μM H3K4me2 peptides (residues 1-21) in 50 mM Tris-HCl, pH 8.5, 50 mM KCl, 5 mM MgCl2, 5% glycerol at 37° C. for 30 min. The products were desalted through a C18 Ziptip (Millipore) and analyzed on a MALDI-TOF micro MX mass spectrometer (ABI 4700, Applied Biosystems). The laser intensity was kept constant for all of the samples. All MS data were processed using Data Explorer 4.5 (Applied Biosystems). […]

[3] = biological target: T3, NPAC214-225.WT (Homo sapiens, UniProt Q49A26); assay: ITC binding between H3K4M peptide and wild-type NPAC peptide alone; conditions: FIG. 6H
T3 construct: wild-type or mutant NPAC peptides (residues 214-225); made in house; host or cells: chemical synthesis

[4] = biological target: T4, His-LSD2 (Homo sapiens, UniProt Q8NB78); assay: Nucleosome demethylation assay (NPAC cofactor activity for LSD2, immunoblot); format: biochemical; conditions: threshold dosage of His-LSD2; nucleosomes purified from HeLa
T4 construct: typically 0.5 μg full-length His-LSD2; made in house; host or cells: Sf9 insect cells
T4 sequence (Q8NB78 1-822): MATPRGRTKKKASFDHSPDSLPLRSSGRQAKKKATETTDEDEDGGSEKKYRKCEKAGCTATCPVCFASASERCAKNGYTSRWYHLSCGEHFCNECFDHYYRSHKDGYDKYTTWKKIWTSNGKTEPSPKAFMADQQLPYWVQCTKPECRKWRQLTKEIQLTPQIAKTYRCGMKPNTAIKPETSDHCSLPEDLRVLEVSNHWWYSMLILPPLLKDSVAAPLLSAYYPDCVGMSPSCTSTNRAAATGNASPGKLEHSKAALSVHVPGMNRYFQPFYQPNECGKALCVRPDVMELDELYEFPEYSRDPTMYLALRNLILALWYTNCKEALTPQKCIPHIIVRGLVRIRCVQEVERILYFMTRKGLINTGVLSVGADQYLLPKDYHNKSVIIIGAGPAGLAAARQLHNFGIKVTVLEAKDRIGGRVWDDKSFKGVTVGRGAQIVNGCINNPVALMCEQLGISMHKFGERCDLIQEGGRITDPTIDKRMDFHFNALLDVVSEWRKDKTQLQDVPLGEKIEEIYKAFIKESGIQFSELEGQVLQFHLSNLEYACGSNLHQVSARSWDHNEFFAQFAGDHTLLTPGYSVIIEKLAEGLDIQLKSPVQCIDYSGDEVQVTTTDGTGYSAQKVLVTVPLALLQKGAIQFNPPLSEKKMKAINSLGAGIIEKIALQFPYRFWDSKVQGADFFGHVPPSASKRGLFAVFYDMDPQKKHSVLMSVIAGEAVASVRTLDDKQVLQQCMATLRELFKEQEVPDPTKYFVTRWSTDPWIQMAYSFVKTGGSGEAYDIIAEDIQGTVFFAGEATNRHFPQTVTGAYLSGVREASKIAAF
Experimental: For nucleosome demethylation assays, typically 0.5 μg full-length His-LSD2, 1 μg NPAC protein or peptides, and 2 μg nucleosomes purified from HeLa were used, and demethylation efficiency was analyzed by SDS-PAGE electrophoresis and immunoblot using methylation specific anti-histone H3 antibodies as previously described (Shi et al. 2004).

[5] = biological target: T5, LSD2 and NPAC.214-225.F217A (Homo sapiens, UniProt Q8NB78); assay: ITC binding of H3K4M peptide with LSD2 in complex with F217A NPAC peptide; conditions: FIG. 6H
T5 construct: containing 0.029 mM LSD2 (residues 51-822) or LSD2-NPAC complex; His6 (cleaved yes); made in house; host or cells: LSD2: Sf9 insect cells; NPAC peptide: chemical synthesis
Experimental: as §1

Row | Sequence | Binding ratio [1] | Kd [1] [nM] | Δ H [1] [kcal/mol] | Δ S [1] [cal/mol/deg] | Cofactor activity: stimulation of LSD2 demethylation of H3K4me2 peptide [2] | Affinity of NPAC peptide to H3K4M peptide [3] | Cofactor activity: stimulation of LSD2 demethylation of nucleosomal H3K4me2 [4] | Ability of NPAC peptide to stabilize the LSD2-H3K4M peptide interaction [5]
1 | DPHFHHFLLSQT [NPAC.214-225.WT] | 1.06 ± 0.01 | 920 ± 80 | -8.482 ± 0.121 | −1.82 | can stimulate LSD2-mediated demethylation of H3K4me2 peptides | no appreciable affinity to H3K4M peptide | sufficient to enhance LSD2 activity in nucleosome demethylation assays | –
2 | DPHAHHFLLSQT [NPAC.214-225.M6] | 1.10 ± 0.01 | 930 ± 70 | -8.182 ± 0.097 | −0.783 | but not the F217A mutant, can stimulate LSD2-mediated demethylation of H3K4me2 peptides | – | abolishes cofactor activity | significantly diminishes the ability of NPAC to stabilize the interaction between LSD2 and the H3K4M peptide
